Measured values published in patent US6616945B1, “Method for making a pharmaceutical formulation” (Leiras Oy, priority 1997, dated 2003).

Experiment: X-ray diffraction (XRD) study of crystallinity / amorphous content
Assay type: physicochemical
Description: FIG. 1 presents the X-ray diffraction (XRD) patterns of three salbutamol samples.
In FIG. 1, the XRD patterns of the three salbutamol samples, which were each treated differently before analysis is shown as follows:
Also the initial mean particle size had been increased close to the upper acceptable limit.
Samples of some months ago micronized material were suspended in n-heptane and stirred 7 and 16 hours at 70° C., followed by drying.
Specific surface area and the energy for moisture absorption during transfer from 0 to 80% RH were metered: […]

change in amount of amorphous matter (micronized drug stored 10 hors at 40° C. and 50% RH): clear decrease
crystallinity by XRD (stirred 7 hours at 50° C. as n-heptane suspension): slightly less
crystallinity by XRD (stirred 7 hours at 60° C. as n-heptane suspension): practically total crystallinity
crystallinity by XRD (stirred 7 hours at 70° C. as n-heptane suspension): practically total crystallinity
Substance: salbutamol sulphate
amorphous content by XRD (untreated micronized sample): a detectable amount of the drug was amorphous
